These are literature values, as cited in patent publication US20090258897A1, “Substituted benzimidazoles” (Auspex Pharmaceuticals, Inc., priority 2008, published 2009).

The series has as its target T1, gastric H^+, K^+-ATPase (Homo sapiens, UniProt P20648).
T1 construct: host or cells: healthy volunteers (in vivo, endogenous gastric enzyme)

Setting [1] is: healthy volunteers, even after stoppage of the drug.

T1 sequence (P20648 whole entry): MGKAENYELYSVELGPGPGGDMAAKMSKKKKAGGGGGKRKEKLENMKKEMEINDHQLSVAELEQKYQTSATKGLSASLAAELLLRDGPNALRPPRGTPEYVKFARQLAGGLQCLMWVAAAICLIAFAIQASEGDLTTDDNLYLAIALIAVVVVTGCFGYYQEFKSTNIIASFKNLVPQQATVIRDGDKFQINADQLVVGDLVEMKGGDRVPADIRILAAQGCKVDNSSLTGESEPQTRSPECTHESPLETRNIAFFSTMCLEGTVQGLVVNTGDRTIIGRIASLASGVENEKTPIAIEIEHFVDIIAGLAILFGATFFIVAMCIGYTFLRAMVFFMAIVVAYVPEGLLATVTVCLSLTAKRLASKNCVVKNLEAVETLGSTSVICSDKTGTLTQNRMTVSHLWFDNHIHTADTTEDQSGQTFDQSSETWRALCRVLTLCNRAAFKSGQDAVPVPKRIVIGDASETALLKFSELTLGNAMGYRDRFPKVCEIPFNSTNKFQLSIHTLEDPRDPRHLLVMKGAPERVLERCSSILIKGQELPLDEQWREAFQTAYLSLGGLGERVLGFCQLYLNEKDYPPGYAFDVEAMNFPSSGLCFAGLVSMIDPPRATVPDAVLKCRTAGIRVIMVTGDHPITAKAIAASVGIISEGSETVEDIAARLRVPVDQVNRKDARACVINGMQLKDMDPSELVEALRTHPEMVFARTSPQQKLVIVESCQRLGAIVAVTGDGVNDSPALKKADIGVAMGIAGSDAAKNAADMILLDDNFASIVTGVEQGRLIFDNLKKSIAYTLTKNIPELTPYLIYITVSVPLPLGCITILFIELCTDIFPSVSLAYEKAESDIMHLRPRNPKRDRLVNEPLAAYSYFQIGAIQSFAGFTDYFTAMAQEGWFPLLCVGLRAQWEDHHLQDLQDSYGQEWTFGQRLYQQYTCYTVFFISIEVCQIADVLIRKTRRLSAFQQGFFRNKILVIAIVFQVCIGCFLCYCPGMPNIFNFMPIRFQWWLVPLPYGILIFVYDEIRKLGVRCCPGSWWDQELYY
T1 sequence (P51164 whole entry partner): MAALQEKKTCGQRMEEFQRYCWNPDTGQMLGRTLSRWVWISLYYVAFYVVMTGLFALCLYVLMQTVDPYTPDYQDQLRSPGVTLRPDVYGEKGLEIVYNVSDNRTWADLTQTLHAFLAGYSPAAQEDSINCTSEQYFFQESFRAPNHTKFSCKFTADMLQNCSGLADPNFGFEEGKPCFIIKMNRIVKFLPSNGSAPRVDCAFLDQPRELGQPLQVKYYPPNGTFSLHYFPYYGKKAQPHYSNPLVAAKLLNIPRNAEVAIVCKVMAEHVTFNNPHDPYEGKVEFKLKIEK

Take `COc1ccc2[nH]c([S+]([O-])Cc3ncc(C)c(OC)c3C)nc2n1` (stereo not drawn) [tenatoprazole, 5-methoxy-2-(4-methoxy-3,5-dimethyl-pyridin-2-ylmethane-sulfinyl)-1H-imidazo[4,5-b]pyridine]: the “potency compared to other proton pump inhibitors (PPIs) such as esomeprazole” value (clinical trials) was “improved potency”. Further, under setting [1], the “duration of acid suppression as compared with other PPIs” value is given as “prolonged duration of acid suppression” and the “nocturnal acid breakthrough as compared with other PPIs” value is listed as “shorter nocturnal acid breakthrough”.
